Laboratory results: patent US20220160779A1, “COMPOSITION FOR PROMOTING CARTILAGE TISSUE REGENERATION” (National University Corporation Tokyo Medical and Dental …, priority 2019, published 2022)

How the values were obtained:
[1] = test system: MSCs positive for CD73, CD90, CD105, CD44; assay: Expression analysis of MSC surface antigens (flow cytometry); type: cell-based, human; details: cultured 2 weeks in the presence of rh Activin A; FIG. 6A
Experimental: Cells were isolated by treatment with TrypLE (Thermo Fisher Scientific, MA, USA) for 5 minutes and stained with antibodies as described in Tsuji K. et al, Cell Transplant. 2017, 26(6), pp. 1089 to 1102. The surface antigen positive cell fraction was then measured using FACS Verse Flow Cytometer (BD Biosciences). Note that fluorochrome-conjugated antibodies for the analysis of cell surface markers (CD73, CD90, CD105, and CD44) were purchased from BD Biosciences (NJ).
To evaluate the effect of activin on the stemness of MSCs, they were cultured for 2 weeks in the presence of rh Activin A, and changes in the expression level of MSC surface antigens were examined by flow cytometric analysis.

p44/42 MAPK (Erk1/2) = assay: Western blotting, phosphorylation of p44/42 MAPK (Erk1/2) in synovial MSCs; type: cell-based, human; details: FIG. 5F
Experimental: Synovial MSCs were seeded in 6 cm dishes to reach a cell count of 2×10^5, and cultured in normal growth medium for 1 day. The medium was replaced with fresh medium with reduced amount of FBS (MEM-alpha, 0.5% FBS and antibiotics) and cultured for one more day. The cells were treated with rh Activin A and/or PDGF-AA (amount 3 times the ED50) for up to 30 minutes. Then, those cells were lysed with cell lysis buffer (#9803S; Cell Signaling Technology, MA) to prepare total cell lysate.
Western blotting was performed as described in Uomizu, M. et al, J Med Dent Sci. vol. 65, pp. 73 to 82. The antibodies used were purchased from Cell Signaling Technology (phospho-p44/42 (#4370), p44/42 (#9102), phospho-Akt (#9271), and Akt (#9272)).

With “Activin A: homodimer of two inhibin βA chains; recombinant human protein purchased from R&D Systems” the “cell population positive for MSC-related antigens (CD73, CD90, CD105, CD44)” value [1] was “no change”, the “phosphorylation of Erk1/2” value (p44/42 MAPK (Erk1/2); Activin A alone, MSCs serum-starved 24 hours, within 30 minutes) was “not detected” and the “intracellular Erk phosphorylation” value (p44/42 MAPK (Erk1/2); Activin A together with PDGF-AA) was “no enhancement”.
